This passage reports Ki results from BindingDB's records for doi:10.1016/s0968-0896(97)00172-7 (Universit&Agrave, 1997).

For assay [1], the target named is T1, Adenosine receptor A1 (Rattus norvegicus, UniProt P25099).
T1 sequence (P25099 whole entry): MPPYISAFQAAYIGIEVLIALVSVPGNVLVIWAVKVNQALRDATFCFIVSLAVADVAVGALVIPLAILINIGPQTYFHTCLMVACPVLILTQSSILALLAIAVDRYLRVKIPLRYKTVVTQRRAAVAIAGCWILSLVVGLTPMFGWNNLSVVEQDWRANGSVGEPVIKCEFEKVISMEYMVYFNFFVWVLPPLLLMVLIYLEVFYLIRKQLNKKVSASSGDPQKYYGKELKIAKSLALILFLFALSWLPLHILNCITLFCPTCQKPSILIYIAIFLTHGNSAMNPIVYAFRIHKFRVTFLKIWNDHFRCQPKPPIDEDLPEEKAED

Assay [2] deals with Adenosine receptor A2a (Rattus norvegicus, UniProt P30543).
Chain of Adenosine receptor A2a (P30543 whole entry): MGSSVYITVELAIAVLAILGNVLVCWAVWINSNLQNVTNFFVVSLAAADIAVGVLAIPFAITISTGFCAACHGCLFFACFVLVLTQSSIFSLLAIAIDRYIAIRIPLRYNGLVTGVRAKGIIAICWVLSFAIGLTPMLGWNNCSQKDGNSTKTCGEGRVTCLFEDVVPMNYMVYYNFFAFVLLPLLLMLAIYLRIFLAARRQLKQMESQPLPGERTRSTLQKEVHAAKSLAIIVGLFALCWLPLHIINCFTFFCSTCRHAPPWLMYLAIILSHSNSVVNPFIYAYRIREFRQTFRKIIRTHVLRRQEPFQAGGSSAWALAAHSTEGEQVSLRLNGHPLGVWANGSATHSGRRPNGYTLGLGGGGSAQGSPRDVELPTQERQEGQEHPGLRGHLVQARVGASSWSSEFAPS

Structures are written as SMILES.

In general, Ki refers to the dissociation constant of the complex between target and ligand, obtained from inhibition or displacement. Read a low Ki as tighter binding. For the compound `CCNC(=O)[C@H]1OC(n2cnc3c(N)nc(C#CC(O)c4ccccc4)nc32)[C@@H](O)[C@H]1O` (stereo partly drawn) [5-[6-Amino-2-(3-hydroxy-3-phenyl-prop-1-ynyl)-purin-9-yl]-3,4-dihydroxy-tetrahydro-furan-2-carboxylic acid ethylamide], the values for the Ki in assay [1] and in assay [2] were 5.9 nM and 2.6 nM, respectively.

With `CCNC(=O)C1OC(n2cnc3c(N)nc(C#CC(O)c4ccccc4)nc32)C(O)C1O` (stereo not drawn) [R,S-PHPNECA], the inhibition constant Ki in assay [1] was determined as 2.5 nM; in assay [2], 0.9 nM.

As to `CCNC(=O)[C@@H]1OC(n2cnc3c(N)nc(C#CC(O)c4ccccc4)nc32)[C@H](O)[C@@H]1O` (stereo partly drawn) [S-PHPNECA], the Ki was found to be 4 nM in assay [1] and 0.5 nM in assay [2].

On to `CCCCC#Cc1nc(N)c2ncn([C@@H]3O[C@H](C(=O)NCC)[C@H](O)C3O)c2n1` (stereo partly drawn) [(2S,3R,5R)-5-[6-amino-2-(hex-1-yn-1-yl)-9H-purin-9-yl]-N-ethyl-3,4-dihydroxyoxolane-2-carboxamide], for which the Ki worked out at 130 nM in assay [1] and 2.2 nM in assay [2].
